Like-named read-outs stand apart in the source and are kept apart here. Marks after values point to notes of the source that are not given here.
Assays:
BlaC [1] = target: T1, BlaC (Mycobacterium tuberculosis, UniProt P9WKD3); details: for Km: read-out: BlaC Km
BlaC-expressing E. coli = format: cell-based
TEM-1 Bla = TEM-1 Bla (Escherichia coli, UniProt P62593); experiment: Fluorescence activation of probes by TEM-1 Bla; format: biochemical, E. coli; details: for change in fluorescence with TEM-1 Bla (in words): TEM-1 Bla 50 nM, 30 minutes
Sequence of TEM-1 Bla (P62593 24-286 limits assumed): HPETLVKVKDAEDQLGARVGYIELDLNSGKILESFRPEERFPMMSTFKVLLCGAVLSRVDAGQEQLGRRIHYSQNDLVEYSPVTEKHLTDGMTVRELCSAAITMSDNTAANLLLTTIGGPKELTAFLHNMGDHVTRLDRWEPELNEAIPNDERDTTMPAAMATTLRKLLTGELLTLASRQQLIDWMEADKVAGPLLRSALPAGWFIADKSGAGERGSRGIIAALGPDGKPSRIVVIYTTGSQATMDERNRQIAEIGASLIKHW
Method: (§1) The fluorescent spectra of the probes CDC-1, CDC-3, CDC-OMe and CDC-OEt were recorded before and after BlaC treatment to examine their responses to BlaC.
(§2) The response of CDC-OMe to varying concentrations of BlaC and TEM-1 Bla (at a range of 1 pM to 100 nM) was examined to investigate its specificity (FIG. 1C). 1 nM of BlaC (100 μL) induced a 130% increase in the fluorescence intensity within one hour (F/F0=2.3), while a 100-fold higher TEM-1 Bla concentration (100 nM) could only produce 30% fluorescence enhancement (F/F0=1.3).
(§3) Even at a more than 1000-fold higher concentration, the fluorescence signal of CDG-OMe generated by TEM-1 Bla (400 nM) was just 30% of that by BlaC (400 pM) in 300 mins, confirming its high selectivity for BlaC (FIG. 5C). Less than 1 fmol of BlaC was readily detectable with CDG-OMe after 8 hours incubation (FIG. 5D).

BlaC [2] = target: T1, BlaC; experiment: Fluorescence activation of probes by BlaC; format: biochemical
Method: as §1, §2, §3

[3] = system: TEM-1 Bla-expressing E. coli; format: cell-based
[4] = system: M. tuberculosis var. bovis strain BCG; format: cell-based, Mycobacterium tuberculosis var. bovis strain BCG
[5] = system: O=C(Cc1ccccc1)N[C@@H]1C(=O)N2C(C(=O)O)=C(COc3ccc4ccc(=O)oc4c3)C[S@+]([O-])[C@H]12; experiment: purified protein, by the assay type; details: pH 7.4; 22.0 °C
[6] = system: COc1ccc(-c2c3ccc(=O)cc-3oc3cc(OCc4ccc(OCC5=C(C(=O)O)N6C(=O)[C@](NC(=O)Cc7ccccc7)(OC)[C@H]6SC5)cc4)ccc23)c(C)c1; experiment: purified protein, by the assay type; details: 22.0 °C
[7] = system: COc1ccc(-c2c3ccc(=O)cc-3oc3cc(OCc4ccc(OCC5=C(C(=O)O)N6C(=O)[C@@H](NC(=O)Cc7ccccc7)[C@H]6SC5)cc4)ccc23)c(C)c1; experiment: purified protein, by the assay type; details: 22.0 °C
[8] = 1 nM of BlaC (100 μL), within one hour

T1 sequence (P9WKD3 35-307 limits assumed): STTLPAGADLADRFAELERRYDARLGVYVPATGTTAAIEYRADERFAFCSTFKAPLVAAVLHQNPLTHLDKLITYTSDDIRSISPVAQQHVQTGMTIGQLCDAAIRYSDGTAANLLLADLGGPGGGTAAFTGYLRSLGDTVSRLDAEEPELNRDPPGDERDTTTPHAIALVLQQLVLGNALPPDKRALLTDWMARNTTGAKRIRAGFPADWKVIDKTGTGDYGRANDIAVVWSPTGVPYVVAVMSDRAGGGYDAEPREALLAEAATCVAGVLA

**Q.** For `O=C(Cc1ccccc1)N[C@@H]1C(=O)N2C(C(=O)O)=C(COc3ccc4ccc(=O)oc4c3)CS[C@H]12` [CDC-1, (6R,7R)-8-Oxo-3-((2-oxo-2H-chromen-7-yloxy)methyl)-7-(2-phenylacetamido)-5-thia-1-azabicyclo[4.2.0]oct-2-ene-2-carboxylic acid], which BlaC kcat (BlaC [1]) is on record?
**A.** The BlaC kcat was 13 s⁻¹.

**Q.** And the Km (BlaC [1])?
**A.** Its Km is 63 µM.

**Q.** What about the “fluorescence in E. coli expressing no β-lactamase, TEM-1 Bla or BlaC (in words)” value (BlaC-expressing E. coli) of the same compound?
**A.** The value was “present in E. coli expressing either TEM-1 Bla or BlaC”.

**Q.** What about the “change in fluorescence with TEM-1 Bla (in words)” value (from here on “change in fluorescence”) (TEM-1 Bla) of the same compound?
**A.** Its value is “rapid fluorescence”.

**Q.** What about the “signal with TEM-1 Bla compared with BlaC (in words)” value (TEM-1 Bla; serially diluted enzymes, 1 hour) of the same compound?
**A.** Its value is “stronger signal than with BlaC”.

**Q.** Which BlaC kcat (BlaC [1]) does the source give for `CCN1CCN(C(=O)N[C@@H](C(=O)N[C@@H]2C(=O)N3C(C(=O)O)=C(COc4ccc5ccc(=O)oc5c4)CS[C@H]23)c2ccccc2)C(=O)C1=O` [CDC-3, (6R,7R)-7-((R)-2-(4-Ethyl-2,3-dioxopiperazine-1-carboxamido)-2-phenylacetamido)-8-oxo-3-((2-oxo-2H-chromen-7-yloxy)methyl)-5-thia-1-azabicyclo[4.2.0]oct-2-ene-2-carboxylic acid] here?
**A.** Its BlaC kcat is 6 s⁻¹.

**Q.** And the Km (BlaC [1])?
**A.** Its Km is 69 µM.

**Q.** What about the “change in fluorescence” value (TEM-1 Bla) of the same compound?
**A.** The value was “rapid fluorescence”.

**Q.** `CC(=O)N[C@@H]1C(=O)N2C(C(=O)O)=C(COc3ccc4ccc(=O)oc4c3)CS[C@H]12` [CDC-4, (6R,7R)-7-Acetamido-8-oxo-3-(((2-oxo-2H-chromen-7-yl)oxy)methyl)-5-thia-1-azabicyclo[4.2.0]oct-2-ene-2-carboxylic acid] was tested. Which BlaC kcat (BlaC [1]) did it give?
**A.** The BlaC kcat was 10 s⁻¹.

**Q.** And the Km (BlaC [1])?
**A.** Its Km is 148 µM.

**Q.** For `CO[C@@]1(NC(C)=O)C(=O)N2C(C(=O)O)=C(COc3ccc4ccc(=O)oc4c3)CS[C@@H]21` [CDC-5, (6R,7S)-7-Acetamido-7-methoxy-8-oxo-3-(((2-oxo-2H-chromen-7-yl)oxy)methyl)-5-thia-1-azabicyclo[4.2.0]oct-2-ene-2-carboxylic acid], which BlaC kcat (BlaC [1]) is on record?
**A.** Its BlaC kcat is 0.52 s⁻¹.

**Q.** What about the Km (BlaC [1]) of the same compound?
**A.** Its Km is 139 µM.

**Q.** Which BlaC kcat (BlaC [1]) does the source give for `CCO[C@@]1(NC(=O)Cc2ccccc2)C(=O)N2C(C(=O)O)=C(COc3ccc4ccc(=O)oc4c3)CS[C@@H]21` [CDC-OEt, (6R,7S)-7-Ethoxy-8-oxo-3-((2-oxo-2H-chromen-7-yloxy)methyl)-7-(2-phenylacetamido)-5-thia-1-azabicyclo[4.2.0]oct-2-ene-2-carboxylic acid] here?
**A.** The BlaC kcat was 0.026 s⁻¹.

**Q.** And the “further reduction in turnover number (BlaC) relative to CDC-OMe” value (BlaC [1])?
**A.** Its value is 40 fold.

**Q.** And the Km (BlaC [1])?
**A.** The Km was 131 µM.

**Q.** And the “fluorescence enhancement by BlaC (in words)” value (BlaC [2]; within 30 minutes, BlaC 50 nM)?
**A.** Its value is “only slight fluorescence enhancement”.

**Q.** How did the BlaC kcat (BlaC [1]) turn out when `CO[C@@]1(NC(=O)Cc2ccccc2)C(=O)N2C(C(=O)O)=C(COc3ccc4ccc(=O)oc4c3)CS[C@@H]21` [CDC-OMe, (6R,7S)-7-Methoxy-8-oxo-3-((2-oxo-2H-chromen-7-yloxy)methyl)-7-(2-phenylacetamido)-5-thia-1-azabicyclo[4.2.0]oct-2-ene-2-carboxylic acid] was run?
**A.** The BlaC kcat was 1 s⁻¹.

**Q.** What about the “catalytic efficiency (kcat/Km) for BlaC over TEM-1 Bla” value (BlaC [1]) of the same compound?
**A.** The value was “over 1,000 fold”.

**Q.** What about the Km (BlaC [1]) of the same compound?
**A.** The Km was 47 µM.

**Q.** And the “fluorescence in E. coli expressing no β-lactamase, TEM-1 Bla or BlaC (in words)” value (BlaC-expressing E. coli)?
**A.** The value was “strong fluorescence was observed only with E. coli expressing BlaC”.

**Q.** And the “F/F0 (turn-on ratio)” value (BlaC [2]; [8])?
**A.** The value was 2.3.

**Q.** And the “increase in the fluorescence intensity” value (BlaC [2]; [8])?
**A.** The value was 130%.

**Q.** What about the “enhancement of fluorescence intensity by BlaC” value (BlaC [2]; in less than 30 minutes, BlaC 50 nM) of the same compound?
**A.** Its value is “more than 30 fold”.

**Q.** And the “change in fluorescence” value (TEM-1 Bla)?
**A.** The value was “no change in the fluorescence intensity”.

**Q.** And the “F/F0 (turn-on ratio)” value (TEM-1 Bla; TEM-1 Bla 100 nM, one hour)?
**A.** The value was 1.3.

**Q.** What about the fluorescence enhancement (TEM-1 Bla; TEM-1 Bla 100 nM, one hour) of the same compound?
**A.** The fluorescence enhancement was 30%.

**Q.** What does the source list for `COc1ccc(-c2c3ccc(=O)cc-3oc3cc(OCc4ccc(OCC5=C(C(=O)O)N6C(=O)[C@@H](NC(=O)Cc7ccccc7)[C@H]6SC5)cc4)ccc23)c(C)c1` [CDG-1, (6R,7R)-3-((4-(((9-(4-Methoxy-2-methylphenyl)-3-oxo-3H-xanthen-6-yl)oxy)methyl)phenoxy)methyl)-8-oxo-7-(2-phenylacetamido)-5-thia-1-azabicyclo[4.2.0]oct-2-ene-2-carboxylic acid]?
**A.** BlaC kcat (BlaC [1]; pH 6.6): (1.0) s^−1; number of TEM-1 Bla-carrying E. coli detected [3]: approximately 1,000; number of BlaC-carrying E. coli detected (BlaC-expressing E. coli): ~10,000

**Q.** What does the source list for `COc1ccc(-c2c3ccc(=O)cc-3oc3cc(OCc4ccc(OCC5=C(C(=O)O)N6C(=O)[C@](NC(=O)Cc7ccccc7)(OC)[C@H]6SC5)cc4)ccc23)c(C)c1` [CDG-OMe, (6R,7S)-7-Methoxy-3-((4-(((9-(4-methoxy-2-methylphenyl)-3-oxo-3H-xanthen-6-yl)oxy)methyl)phenoxy)methyl)-8-oxo-7-(2-phenylacetamido)-5-thia-1-azabicyclo[4.2.0]oct-2-ene-2-carboxylic acid]?
**A.** number of BCG detected ([4]; 20 min incubation): 2×10^5 CFU; number of BCG detected ([4]; 438 mins (7 hours) incubation): 10^3 CFU; increase of kcat/Km for BlaC relative to CDC-OMe (BlaC [1]): 11 fold; BlaC kcat (BlaC [1]; pH 6.6): (0.8) s^−1; signal from TEM-1 Bla-expressing E. coli (in words) [3]: no detectable signal; signal from BlaC-expressing E. coli (in words) (BlaC-expressing E. coli): strong fluorescent signal; amount of BlaC readily detectable (BlaC [2]; after 8 hours incubation): Less than 1 fmol; increase of fluorescence emission at 520 nm upon treatment with BlaC (BlaC [2]; excitation 490 nm): up to 218 fold; fluorescence signal generated by TEM-1 Bla relative to that by BlaC (TEM-1 Bla; TEM-1 Bla 400 nM vs BlaC 400 pM, 300 mins): 30%

**Q.** What does the source list for BlaC (Mycobacterium tuberculosis H37Rv)?
**A.** Km [5]: 136 µM; kcat [5]: 0.51 s⁻¹; kcat/Km [5]: 3.8 × 10^3 s^−1M^−1; Km ([6]; pH 6.6): (4.7)^c μM; Km ([6]; pH 7.4): 2.9 µM; kcat ([6]; pH 7.4): 0.7 s⁻¹; kcat/Km ([6]; pH 7.4): 2.4 × 10^5 s^−1M^−1; Km ([7]; pH 6.6): (2.1)^c μM; Km ([7]; pH 7.4): 2.1 µM; kcat ([7]; pH 7.4): 3.7 s⁻¹; kcat/Km ([7]; pH 7.4): 1.8 × 10^6 s^−1M^−1
